Biological target: T1, PLK1 (Homo sapiens, UniProt P53350)
T1 construct: endogenous in cells; host or cells: HeLa LgBit (Plk1-HiBit KI): HeLa stably expressing LgBit, with a CRISPR/Cas9 knock-in of HiBit at the endogenous PLK1 locus
Test: Luciferase assay for PLK1 in HeLa LgBit (Plk1-HiBit KI) cell line
Format: cell-based
Conditions: 300 nM compound, luminescence after 9 hours
In short: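 HeLa cells stably expressing LgBit, with HiBit knocked in at the C-terminus of endogenous Plk1, released from a 24 h 2 mM thymidine block and grown 18 h. Endurazine added, then compound at 300 nM; luminescence tracked in real time, expressed as ratio to DMSO.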

T1 sequence (P53350 whole entry): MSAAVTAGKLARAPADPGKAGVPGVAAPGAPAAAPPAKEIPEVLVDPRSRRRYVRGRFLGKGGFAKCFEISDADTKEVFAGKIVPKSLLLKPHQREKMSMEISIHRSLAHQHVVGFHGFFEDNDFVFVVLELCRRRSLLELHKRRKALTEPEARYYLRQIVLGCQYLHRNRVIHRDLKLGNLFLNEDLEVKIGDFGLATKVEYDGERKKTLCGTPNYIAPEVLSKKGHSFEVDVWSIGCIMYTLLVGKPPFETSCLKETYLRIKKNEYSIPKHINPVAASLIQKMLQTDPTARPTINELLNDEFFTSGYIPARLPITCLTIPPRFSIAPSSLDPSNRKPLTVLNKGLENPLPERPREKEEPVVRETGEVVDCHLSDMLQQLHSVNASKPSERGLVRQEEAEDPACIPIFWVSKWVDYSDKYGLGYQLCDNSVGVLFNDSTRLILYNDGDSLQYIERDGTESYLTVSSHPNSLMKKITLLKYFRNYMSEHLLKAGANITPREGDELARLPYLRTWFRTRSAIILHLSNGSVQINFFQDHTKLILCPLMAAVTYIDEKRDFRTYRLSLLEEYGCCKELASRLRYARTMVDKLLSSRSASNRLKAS

SMILES | Activity: ratio of the luminescense value of each Exemplary Compound treatment group to DMSO treatment group
COc1cc(C(=O)NC2CCN(C[C@@H]3CCN(c4ccc5c(c4)C(=O)N(C4CCC(=O)NC4=O)C5=O)C3)CC2)ccc1Nc1ncc2c(n1)N(C1CCCC1)CC(F)(F)C(=O)N2C (stereo partly drawn) [Compound 48, 4-((9-cyclopentyl-7,7-difluoro-5-methyl-6-oxo-6,7,8,9-tetrahydro-5H-pyrimido[4,5-b][1,4]diazepin-2-yl)amino)-N-(1-(((3S)-1-(2-(2,6-dioxopiperidin-3-yl)-1,3-dioxoisoindolin-5-yl)pyrrolidin-3-yl)methyl)piperidin-4-yl)-3-methoxybenzamide] | + (+<0.7)
COc1cc(C(=O)NC2CCN(CCCc3cccc4c3C(=O)N(C3CCC(=O)NC3=O)C4=O)CC2)ccc1Nc1ncc2c(n1)N(C1CCCC1)CC(F)(F)C(=O)N2C (stereo not shown) [Compound 14, 4-((9-cyclopentyl-7,7-difluoro-5-methyl-6-oxo-6,7,8,9-tetrahydro-5H-pyrimido[4,5-b][1,4]diazepin-2-yl)amino)-N-(1-(3-(2-(2,6-dioxopiperidin-3-yl)-1,3-dioxoisoindolin-4-yl)propyl)piperidin-4-yl)-3-methoxybenzamide] | ++ (++<0.6)
COc1cc(C(=O)N2CCN(CCCCN3CCN(c4cccc5c4C(=O)N(C4CCC(=O)NC4=O)C5=O)CC3)CC2)ccc1Nc1ncc2c(n1)N(C1CCCC1)CC(F)(F)C(=O)N2C (stereo not shown) [Compound 88, 4-(4-(4-(4-(4-((9-cyclopentyl-7,7-difluoro-5-methyl-6-oxo-6,7,8,9-tetrahydro-5H-pyrimido[4,5-b][1,4]diazepin-2-yl)amino)-3-methoxybenzoyl)piperazin-1-yl)butyl)piperazin-1-yl)-2-(2,6-dioxopiperidin-3-yl)isoindoline-1,3-dione] | ++ (++<0.6)
COc1cc(C(=O)NC2CCN(CCOCCOCCOCCOCCOCCOCCNc3cccc4c3C(=O)N(C3CCC(=O)NC3=O)C4=O)CC2)c(F)cc1Nc1ncc2c(n1)N(C1CCCC1)CC(F)(F)C(=O)N2C (stereo not shown) [Compound 17, 4-((9-cyclopentyl-7,7-difluoro-5-methyl-6-oxo-6,7,8,9-tetrahydro-5H-pyrimido[4,5-b][1,4]diazepin-2-yl)amino)-N-(1-(20-((2-(2,6-dioxopiperidin-3-yl)-1,3-dioxoisoindolin-4-yl)amino)-3,6,9,12,15,18-hexaoxaicosyl)piperidin-4-yl)-2-fluoro-5-methoxybenzamide] | ++ (++<0.6)
COc1cc(C(=O)NC2CCN(C(=O)COC3CN(c4cccc5c4C(=O)N(C4CCC(=O)NC4=O)C5=O)C3)CC2)ccc1Nc1ncc2c(n1)N(C1CCCC1)CC(F)(F)C(=O)N2C (stereo not shown) [Compound 80, 4-((9-cyclopentyl-7,7-difluoro-5-methyl-6-oxo-6,7,8,9-tetrahydro-5H-pyrimido[4,5-b][1,4]diazepin-2-yl)amino)-N-(1-(2-((1-(2-(2,6-dioxopiperidin-3-yl)-1,3-dioxoisoindolin-4-yl)azetidin-3-yl)oxy)acetyl)piperidin-4-yl)-3-methoxybenzamide] | ++ (++<0.6)
COc1cc(C(=O)NC2CCN(CCNc3cccc4c3C(=O)N(C3CCC(=O)NC3=O)C4=O)CC2)c(F)cc1Nc1ncc2c(n1)N(C1CCCC1)CC(F)(F)C(=O)N2C (stereo not shown) [Compound 1, 4-((9-cyclopentyl-7,7-difluoro-5-methyl-6-oxo-6,7,8,9-tetrahydro-5H-pyrimido[4,5-b][1,4]diazepin-2-yl)amino)-N-(1-(2-((2-(2,6-dioxopiperidin-3-yl)-1,3-dioxoisoindolin-4-yl)amino)ethyl)piperidin-4-yl)-2-fluoro-5-methoxybenzamide] | ++ (++<0.6)
COc1cc(C(=O)NC2CCN(CCOc3ccc4c(c3)C(=O)N(C3CCC(=O)NC3=O)C4=O)CC2)c(F)cc1Nc1ncc2c(n1)N(C1CCCC1)CC(F)(F)C(=O)N2C (stereo not shown) [Compound 3, 4-((9-cyclopentyl-7,7-difluoro-5-methyl-6-oxo-6,7,8,9-tetrahydro-5H-pyrimido[4,5-b][1,4]diazepin-2-yl)amino)-N-(1-(2-((2-(2,6-dioxopiperidin-3-yl)-1,3-dioxoisoindolin-5-yl)oxy)ethyl)piperidin-4-yl)-2-fluoro-5-methoxybenzamide] | ++ (++<0.6)
COc1cc(C(=O)NC2CCN(CCCC3CCCN(c4cccc5c4C(=O)N(C4CCC(=O)NC4=O)C5=O)C3)CC2)ccc1Nc1ncc2c(n1)N(C1CCCC1)CC(F)(F)C(=O)N2C (stereo not shown) [Compound 57, 4-((9-cyclopentyl-7,7-difluoro-5-methyl-6-oxo-6,7,8,9-tetrahydro-5H-pyrimido[4,5-b][1,4]diazepin-2-yl)amino)-N-(1-(3-(1-(2-(2,6-dioxopiperidin-3-yl)-1,3-dioxoisoindolin-4-yl)piperidin-3-yl)propyl)piperidin-4-yl)-3-methoxybenzamide] | + (+<0.7)

Now from value to compound:

Activity: ratio of the luminescense value of each Exemplary Compound treatment group to DMSO treatment group | SMILES
++ (++<0.6) | COc1cc(C(=O)N2CCC(CN3CCN(c4cc5c(cc4F)C(=O)N(C4CCC(=O)NC4=O)C5=O)CC3)CC2)ccc1Nc1ncc2c(n1)N(C1CCCC1)CC(F)(F)C(=O)N2C (stereo not shown) [Compound 101, 5-(4-((1-(4-((9-cyclopentyl-7,7-difluoro-5-methyl-6-oxo-6,7,8,9-tetrahydro-5H-pyrimido[4,5-b][1,4]diazepin-2-yl)amino)-3-methoxybenzoyl)piperidin-4-yl)methyl)piperazin-1-yl)-2-(2,6-dioxopiperidin-3-yl)-6-fluoroisoindoline-1,3-dione]
++ (++<0.6) | COc1cc(C(=O)N2CCC(CCCCN3CCN(c4cccc5c4C(=O)N(C4CCC(=O)NC4=O)C5=O)CC3)CC2)ccc1Nc1ncc2c(n1)N(C1CCCC1)CC(F)(F)C(=O)N2C (stereo not shown) [Compound 96, 4-(4-(4-(1-(4-((9-cyclopentyl-7,7-difluoro-5-methyl-6-oxo-6,7,8,9-tetrahydro-5H-pyrimido[4,5-b][1,4]diazepin-2-yl)amino)-3-methoxybenzoyl)piperidin-4-yl)butyl)piperazin-1-yl)-2-(2,6-dioxopiperidin-3-yl)isoindoline-1,3-dione]
++ (++<0.6) | COc1cc(C(=O)N2CCC(N3CCN(CCOCCCNc4ccc5c(c4)C(=O)N(C4CCC(=O)NC4=O)C5=O)CC3)CC2)c(F)cc1Nc1ncc2c(n1)N(C1CCCC1)CC(F)(F)C(=O)N2C (stereo not shown) [Compound 192, 5-((3-(2-(4-(1-(4-((9-cyclopentyl-7,7-difluoro-5-methyl-6-oxo-6,7,8,9-tetrahydro-5H-pyrimido[4,5-b][1,4]diazepin-2-yl)amino)-2-fluoro-5-methoxybenzoyl)piperidin-4-yl)piperazin-1-yl)ethoxy)propyl)amino)-2-(2,6-dioxopiperidin-3-yl)isoindoline-1,3-dione]
+ (+<0.7) | COc1cc(C(=O)NC2CCCC(N(C)C3CCN(c4cccc5c4C(=O)N(C4CCC(=O)NC4=O)C5=O)CC3)C2)ccc1Nc1ncc2c(n1)N(C(C)C)CC(F)(F)C(=O)N2C (stereo not shown) [Compound 166, 4-((7,7-difluoro-9-isopropyl-5-methyl-6-oxo-6,7,8,9-tetrahydro-5H-pyrimido[4,5-b][1,4]diazepin-2-yl)amino)-N-(3-((1-(2-(2,6-dioxopiperidin-3-yl)-1,3-dioxoisoindolin-4-yl)piperidin-4-yl)(methyl)amino)cyclohexyl)-3-methoxybenzamide]
+ (+<0.7) | COc1cc(N2CCC(CCN3CCN(c4ccc5c(c4)C(=O)N(C4CCC(=O)NC4=O)C5=O)CC3)CC2)c(F)cc1Nc1ncc2c(n1)N(C1CCCC1)CC(F)(F)C(=O)N2C (stereo not shown) [Compound 112, 5-(4-(2-(1-(4-((9-cyclopentyl-7,7-difluoro-5-methyl-6-oxo-6,7,8,9-tetrahydro-5H-pyrimido[4,5-b][1,4]diazepin-2-yl)amino)-2-fluoro-5-methoxyphenyl)piperidin-4-yl)ethyl)piperazin-1-yl)-2-(2,6-dioxopiperidin-3-yl)isoindoline-1,3-dione]
++ (++<0.6) | COc1cc(C(=O)NC2CCN(C(=O)CC[C@H]3CN(Cc4cccc5c4C(=O)N(C4CCC(=O)NC4=O)C5=O)CCO3)CC2)ccc1Nc1ncc2c(n1)N(C1CCCC1)CC(F)(F)C(=O)N2C (stereo partly drawn) [Compound 174, 4-((9-cyclopentyl-7,7-difluoro-5-methyl-6-oxo-6,7,8,9-tetrahydro-5H-pyrimido[4,5-b][1,4]diazepin-2-yl)amino)-N-(1-(3-((2S)-4-((2-(2,6-dioxopiperidin-3-yl)-1,3-dioxoisoindolin-4-yl)methyl)morpholin-2-yl)propanoyl)piperidin-4-yl)-3-methoxybenzamide]
+ (+<0.7) | COc1cc(C(=O)N2CCN(CCCNc3cccc4c3C(=O)N(C3CCC(=O)NC3=O)C4=O)CC2)c(F)cc1Nc1ncc2c(n1)N(C1CCCC1)CC(F)(F)C(=O)N2C (stereo not shown) [Compound 183, 4-((3-(4-(4-((9-cyclopentyl-7,7-difluoro-5-methyl-6-oxo-6,7,8,9-tetrahydro-5H-pyrimido[4,5-b][1,4]diazepin-2-yl)amino)-2-fluoro-5-methoxybenzoyl)piperazin-1-yl)propyl)amino)-2-(2,6-dioxopiperidin-3-yl)isoindoline-1,3-dione]
+ (+<0.7) | COc1cc(C(=O)NC2CCN(C(=O)CCCCCOC3CN(c4cccc5c4C(=O)N(C4CCC(=O)NC4=O)C5=O)C3)CC2)ccc1Nc1ncc2c(n1)N(C1CCCC1)CC(F)(F)C(=O)N2C (stereo not shown) [Compound 199, 4-((9-cyclopentyl-7,7-difluoro-5-methyl-6-oxo-6,7,8,9-tetrahydro-5H-pyrimido[4,5-b][1,4]diazepin-2-yl)amino)-N-(1-(6-((1-(2-(2,6-dioxopiperidin-3-yl)-1,3-dioxoisoindolin-4-yl)azetidin-3-yl)oxy)hexanoyl)piperidin-4-yl)-3-methoxybenzamide]

From patent US20250114460A1, “NOVEL PLK1 DEGRADATION INDUCING COMPOUND” (UPPTHERA, INC., priority 2021, published 2025)
